SMILES strings stand for the structures.

Series [1] concerns human survivin promoter. Kind of series: in vivo luciferase imaging of SPlucTg mice during liver injury and regeneration after CCl4. Details: species or system mouse. As to the method:
FIG. 20 is a photographic representation (obtained using the XENOGEN IVIS® in vivo Imaging System) of dose-dependent transient turn-on of survivin promoter activity during SPlucTg mouse liver injury and regeneration using carbon tetrachloride (CCl4): A 10% of CCl4 solution formulated in corn oil was prepared. The following dose was injected intraperitoneally on Day 0: 50 μl/25 g (panel A), 100 μl/25 g (panel B), 200 μl/25 g (panel C) and 300 μl/25 g (panel D). The in vivo imaging was monitored on Day 1 (24 h), Day 2 (48 h), Day 3 (72 h), Day 4 (96 h) and Day 6 (144 h) after administration of CCl4 (arrows indicate luciferase expression). […]
(§1) Using a survivin-specific monoclonal antibody termed 12C4, we have recently shown that testis is the only human organ that highly expresses survivin (60-70% of spermatogonia) (19). Consistent with this observation, luciferase activity in SPlucTg mice was detected only in the testis of male mice but not in female mice (founder, F1 and F2). […]
Based on this observation, we tested whether we could observe luciferase activity during mouse liver regeneration after injury. […] Importantly, the mouse liver injury and luciferase activity monitored by in vivo imaging is CCl4 dose-dependent, which provides a novel basis for testing compound-induced tissue injury/toxicity.

Series [2] concerns survivin. Kind of series: survivin expression and survivin promoter activity in cancer cells (earlier work). It is filed as cell-based, human. The settings on record: binds to the survivin promoter.
Series [3] deals with cancer cells. Kind of series: cell death of treated cancer cells. In kind it is cell-based.
The subject of series [4] is human survivin promoter. In words: luciferase activity assay in cancer cell clones stably transfected with pNeoHScyc4.08-luc. In kind it is cell-based. How it is done:
Methods for transfection, G418 selection, single clone isolation and amplification: Cells were first tested for G418 resistance with a series of G418 concentrations. For transfection, cells were seeded in a 6-well cell culture plate, one day before transfection, to a cell concentration in which cell would grow into 40-70% confluence on the second day for transfection. Cells were transfected with the Sal I-linearized pNeoHScyc4.08-luc or pNeoHS4.04-luc using LIPOFECTAMINE™ 2000 (INVITROGEN). Briefly, 1-2 μg (dependent on cell transfection efficiency) of the linearized plasmid DNA in 100 μl serum-free DMEM were mixed with 1.5-3 μl Lipofectamine™ 2000 in 100 μl serum-free DMEM in a 1.5-ml tube for each well of 6-well plates. After incubation at room temperature for 20-25 minutes, the DNA/Lipofectamine™ 2000 mixture was added to each well containing 500 μl serum-free DMEM medium in the 6-well plate. […]
Methods for measuring luciferase activity and isolation of the correct cell clones: For luciferase assays, the Luciferase Reporter Assay System (PROMEGA) was used. […] Luciferase activity for each cell clones was determined every 4-5 sub-culture/passing. […]
Therefore, we used Hedamycin as a positive control to test our genetically modified cancer cell models. […] After cells were treated with 10 nM hedamycin for 16-24 hours, cells were lysed and luciferase activity was measured as described above. […]

Series [5] relates to survivin. Conditions: cancer cells; reference 15; cited from earlier work.
Series [6] deals with human survivin promoter. In words: in vivo luciferase imaging of castrated SPlucTg male mice after androgen treatment. Conditions: testosterone pills imbedded 14 days after castration, seen on Day 11 and Day 14 post pill. Details: species or system mouse.
Description: FIG. 19 is a photographic representation (obtained using the XENOGEN IVIS® in vivo Imaging System) of transient turn-on of survivin promoter activity by imbedding testosterone pills in castrated SPlucTg mice: Testosterone pills were imbedded in the back of the neck of SPlucTg mice (an example shown here is the F1 5556m derived from 5196m founder) 14 days after castration (prostate tissue shrinking to the minimal size by apoptosis in the 14 days). After testosterone pill implantation, luciferase activity was monitored using in vivo imaging.
Generation of SPlucTg mice: The targeting construct, pHScyc4.08-luc, was digested with Sal I and Sac I to isolate the 8.5 kb transgene cassette (HScyc4.08-luc) from the bacterial plasmid backbone (see FIG. 2). […] Cesium chloride-purified HScyc4.08-luc DNA was microinjected into the pronuclei of day-0.5 embryos of C57BL/6 mice. Injected embryos were implanted into the oviducts of pseudo-pregnant female Swiss Webster mice. […]
as §1

In the case of `ClC(Cl)(Cl)Cl` [CCl4, carbon tetrachloride], in series [1] (intraperitoneal CCl4, 50, 100, 200, 300 μl/25 g), the “dose dependence of mouse liver injury and luciferase activity” value is listed as “dose-dependent”. The “luciferase activity during liver regeneration by in vivo imaging” value in series [1] (intraperitoneal injection of 10% CCl4 in corn oil, 50-300 μl/25 g, Day 1-6) was “strong luciferase activity”.
As for `CCOc1ccc(-c2nc3ccc(-c4nc5ccc(N6CCN(C)CC6)cc5[nH]4)cc3[nH]2)cc1` [Hoechst33342], in series [2], the “survivin promoter activity and endogenous survivin gene expression” value is “upregulates the survivin promoter activity and endogenous survivin gene expression”. The cell death entry in series [3] (500 nM for 16-24 hours) is “does not result in significant cell death”. The survivin promoter/luciferase activity result in series [4] (500 nM Hoechst33342 for 16-24 hours, A549, 2008, HCT116, PC-3 clones with pNeoHScyc4.08-luc (FIGS. 9-12)) was “upregulates survivin promoter/luciferase activity”.
As for `Cc1cc2c(c3oc(C4(C)OC4C4OC4C)cc(=O)c13)C(=O)c1c(O)c(C3CC(C)(N(C)C)C(O)C(C)O3)cc(C3CC(N(C)C)C(O)C(C)O3)c1C2=O` (stereo not shown) [hedamycin], the cell death entry in series [3] (10 nM for 16-24 hours) was “do not show significant cell death”. Also, the “survivin expression and survivin promoter activity” value in series [5] is “inhibits survivin expression and downregulates survivin promoter activity”. Besides, the luciferase activity result in series [4] (10 nM hedamycin for 16-24 hours, A549, 2008, HCT116, PC-3 clones with pNeoHScyc4.08-luc (FIGS. 5-8)) was “significantly inhibited”.
As for `C[C@]12CC[C@H]3[C@@H](CCC4=CC(=O)CC[C@@]43C)[C@@H]1CC[C@@H]2O` [testosterone], the “luciferase activity (survivin promoter activity) by in vivo imaging” value in series [6] is listed as “Transient induction of survivin promoter activity”; in series [6] (listed as androgen), “transient luciferase activity”.

Source of the values: US7569221B2, “Compositions and methods for identifying agents that alter expression of survivin” (Health Research, Inc., priority 2006, dated 2009).
